From patent EP1192182B1, “PITUITARY ADENYLATE CYCLASE ACTIVATING PEPTIDE (PACAP) RECEPTOR 3 (R3) AGONISTS AND THEIR PHARMACOLOGICAL METHODS OF USE” (priority 1999, dated 2001)
Starred links: 1 amine or outer side, 2 acyl side, 3 side chain; linkers in the order of their positions; H or OH if unused. Non-standard residues stand in square brackets, D forms with d. Residues, ends and D or L forms follow the SMILES beside them. No end group written: not given here. Tyr(Me) = O-methyl-Tyr (CH3O-Y), COc1ccc(C[C@H](N[*:1])C(=O)[*:2])cc1; Nle = CCCC[C@H](N)C(=O)O

Assays:
[1] = biological target: T1, PACAP-R2 (Homo sapiens, UniProt P32241); assay: Cyclic AMP SPA on CHO cells transfected with PACAP-R2; type: cell-based; conditions: cAMP SPA, EC50 = concentration at which 50% of maximum PACAP27 activity is achieved, NA = no detectable activities
T1 construct: expressed in transfected cells; host or cells: CHO cells
T1 sequence (P32241 31-457): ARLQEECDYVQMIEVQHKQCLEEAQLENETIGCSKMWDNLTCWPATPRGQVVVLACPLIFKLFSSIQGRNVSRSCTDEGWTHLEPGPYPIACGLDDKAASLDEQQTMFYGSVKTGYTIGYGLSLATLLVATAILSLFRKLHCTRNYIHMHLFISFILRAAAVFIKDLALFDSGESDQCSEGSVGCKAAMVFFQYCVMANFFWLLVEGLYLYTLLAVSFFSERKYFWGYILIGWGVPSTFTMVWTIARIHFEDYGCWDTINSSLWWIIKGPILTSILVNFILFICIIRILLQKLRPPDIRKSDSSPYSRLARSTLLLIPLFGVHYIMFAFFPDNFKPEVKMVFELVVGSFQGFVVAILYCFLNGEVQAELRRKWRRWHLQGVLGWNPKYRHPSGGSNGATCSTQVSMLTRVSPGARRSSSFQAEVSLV
Method: (§1) CHO cells expressing the PACAP R3 were plated in 96-well plates (Costar) at 8 x 10^4 cell/well and grown at 37C for 24 hours in a MEM + nucleosides + glutamine (Giobco BRL), 10% FBS, 100 µg/ml Pen/Strep, 0.3 mg/ml glutamine, 1 mM HEPES, 0.5 mg/ml Geneticin (Gibco BRL). The media was removed and the plates were washed with PBS. The cells were incubated with a peptide, in Hepes-PBS-BSA with 0.4mg/mlSoybean Trypsin inhibitor, 0.5 mg/ml Bacitracin, 100uM IBMX, for 15 min at 37 C. Cyclic AMP in the ceii extracts was quantitated using the cAMP SPA direct screening assay system (Amersham Pharmacia Biotech Inc, Piscataway, NJ,). The peptides shown in Table 3 were assayed for cAMP activity.
(§2) EC50 is defined as the concentration of the polypeptide at which 50% of maximum PACAP27 activity is achieved. "NA" denotes no detectable activities. "R3 Selectivity" is derived from the ratio of EC50 at R2 versus EC50 at R3. […]

[2] = biological target: T2, PACAP-R3 (Homo sapiens, UniProt P41587); assay: Cyclic AMP SPA on CHO cells expressing PACAP R3; type: cell-based; design: expressed in transfected cells; host or cells: CHO cells; conditions: cAMP SPA, CHO cells transfected with PACAP-R3; EC50 = concentration at which 50% of maximum PACAP27 activity is achieved; NA = no detectable activities
T2 sequence (P41587 24-438): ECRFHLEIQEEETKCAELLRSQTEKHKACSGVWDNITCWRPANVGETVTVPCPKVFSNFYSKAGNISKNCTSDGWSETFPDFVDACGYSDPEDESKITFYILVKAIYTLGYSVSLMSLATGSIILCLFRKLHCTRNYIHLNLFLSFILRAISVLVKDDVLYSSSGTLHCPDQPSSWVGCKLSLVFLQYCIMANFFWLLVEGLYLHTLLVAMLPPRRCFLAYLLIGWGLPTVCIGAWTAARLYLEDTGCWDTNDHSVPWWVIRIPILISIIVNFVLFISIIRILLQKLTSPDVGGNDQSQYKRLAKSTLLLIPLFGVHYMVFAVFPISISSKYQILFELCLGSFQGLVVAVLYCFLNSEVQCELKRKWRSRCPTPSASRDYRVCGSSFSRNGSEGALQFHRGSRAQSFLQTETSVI
Method: as §1, §2

[3] = Heart rate in conscious dogs; conditions: i.v., AUC of first 10 minutes of heart rate change
Method: Beagle dogs were put into a sling where they have been trained to stand for up to 3 hours. The cuff of the heart rate monitor was placed around the tail of the dog.
Saline was injected into the cephalic vein and heart rate monitored every 2 minutes to establish a baseline. After 10 minutes, peptide, including peptides which are not part of the invention, was injected and heart rate monitored every 2 minutes for the next 20 minutes. If heart rate was normal at that time, a higher dose was given and heart rate monitored for 20 minutes.

[4] = Peptide-induced elevation of plasma insulin after IVGTT; type: in vivo; conditions: one minute after IVGTT (0.4g/kg glucose), 1 nmole/kg peptide i.v., Wistar rats
Method: Wistar rats are fasted overnight (17 hrs) and then anesthetized with pentobarbital (0.1 ml/100 g BW). Glucose (0.4 g/kg dissolved in 1% human albumin-saline) +/- peptide (dissolved in 1% human albumin-saline) is injected intravenously into the tail vein. The rats are eye-bled 1 minute after the injection and 50-100ul of the plasma are assayed for insulin level with the Linco RIA kit (Linco Research, Inc., St. Charles, MO).
(§3) In accordance with the protocol of example 2 above, overnight fasted Wistar rats were anesthetized with pentobarital; i.v. injected with glucose ± peptide and eye bled after 1 minute. N=12 rats/group. […] The peptide or vehicle was given i.v. followed by a glucose load given i.p. in accordance with example 3. The plasma glucose was followed over the time period indicated.
Plasma insulin: Data are expressed as % of plasma insulin one minute after IVGTT (0.4g/kg glucose) with either saline, 0.1nmol/kg P51, P55, P60, P66 or 1 nmole/kg of the other peptides including peptides which are not part of the present invention in Wistar rats. Blood was drawn from the eye and insulin was measured with the rat insulin RIA kit (Linco Research, Inc, St. Charles, MO).

[5] = Intraperitoneal glucose tolerance test (IPGTT), plasma glucose; type: in vivo, Wistar rats; conditions: for Plasma Glucose (% of Basal) i.v.: 1 nmol/kg peptide i.v.; for glucose disposal in the rat: 1 nmole/kg dose, subcutaneous route, FIG. 7 legend
Method: Wistar rats are fasted overnight and then anesthetized with pentobarbital. The rats were eye-bled (zero time) and the peptide ( in 1% human albumin) was injected into the tail vein. Five minutes later, 1 g/kg of glucose (in saline) was injected intraperitoneally, and the rats were eye-bled after 15, 30 and 60 minutes. Plasma glucose levels were determined using the Technicon Axon autoanalyzer, Bayer Diagnosics division of Bayer Corporation, Tarrytown NY, operated using Method No. SM4-2143F90 "Glucose".
as §3
Wistar rats were fasted overnight and then anesthetized with Pentobarbital. The rats were eye-bled (zero time) and the peptide (in 1 % human albumin) was injected subcutaneously. Five minutes later, 1 g/kg of glucose (in saline) was injected intraperitoneally, and the rats were eye-bled after 30 minutes.
Plasma glucose: Data are expressed as % of vehicle of plasma glucose area under the curve after IPGTT (1 g/kg glucose) after treatment with 1 nmol/kg dose of the peptide. […] The present Inventors have shown for the first time that this is because the effects of R2 and R3 on glucose tend to cancel each other out. […] Therefore, R3-selectlvlty appears to be a desirable attribute for medicaments which are to be employed in achieving blood glucose reduction, for treatment of type 2 diabetes.

[6] = in vivo; cited from earlier work
[7] = biological target: T2, PACAP-R3; conditions: literature; cited from earlier work
[8] = system: rat islets; assay: Insulin release from isolated rat islets; type: cell-based, Sprague-Dawley rats; conditions: peptide 10nM for 2hrs, 8mM glucose; % of [insulin] in 8mM glucose alone
Method: Sprague Dawley rats (275-320 g) were used as the source of donor islets. Briefly, the pancreas was filled with 10 ml of cold reconstituted Liberase RI (Boehringer Manheim), harvested and incubated with additional 5 ml enzyme solution in water bath for 30 minutes. Tissue suspension was washed twice with cold 10% FBS/Hanks buffer (Gibco), resuspended in 8 ml 25% ficoll (Sigma) and then layered with 5 ml each of 23%, 20% and 11 % ficoll. The islets in the 20% layer after centrifugation were removed, washed twice with cold 10% FBS/Hank buffer and resuspended in 10% FBS/RPMI 1640 media (Sigma).
Islet insulin release: Rat islets were isolated from Sprague-Dawley rats as described in example 1 and treated with either vehicle or specified peptide (10nM) for 2hrs. Insulin concentration in the medium was measured with the Linco rat insulin RIA kit. Glucose concentration in the medium was 8mM. The data are expressed as % of [insulin] in 8mM glucose alone. No polypeptide-induced Increases in insulin concentration were observed al 3 mM glucose; thus, the insulin releasing activity of these polypeptides are glucose-dependent. It should be noted that the following Table includes data for polypeptides which are not part of the present invention.

[9] = plasma glucose area under the curve after IPGTT (1 g/kg glucose), % of vehicle

Q: Which EC50 [1] does the source give for “HSDGIFTDSYSRYRKQLAAKKYLADVKK [Peptide R3P38]” here?
A: 17 nM

Q: What about the EC50 [2] of the same compound?
A: 2.3 nM

Q: What does the source list for `CC[C@H](C)[C@H](NC(=O)CNC(=O)[C@H](CC(=O)O)NC(=O)[C@H](CO)NC(=O)[C@@H](N)Cc1c[nH]cn1)C(=O)N[C@@H](Cc1ccccc1)C(=O)N[C@H](C(=O)N[C@@H](CC(=O)O)C(=O)N[C@@H](CO)C(=O)N[C@@H](CCCCN)C(=O)N[C@@H](CO)C(=O)N[C@@H](CCCNC(=N)N)C(=O)N[C@@H](Cc1ccc(O)cc1)C(=O)N[C@@H](CCCNC(=N)N)C(=O)N[C@@H](CCCCN)C(=O)N[C@@H](CCC(N)=O)C(=O)N[C@@H](CCSC)C(=O)N[C@@H](C)C(=O)N[C@H](C(=O)N[C@@H](CCCCN)C(=O)N[C@@H](CCCCN)C(=O)N[C@@H](Cc1ccc(O)cc1)C(=O)N[C@@H](CC(C)C)C(=O)N[C@@H](C)C(=O)N[C@@H](C)C(=O)N[C@H](C(=O)N[C@@H](CC(C)C)C(N)=O)C(C)C)C(C)C)[C@@H](C)O` [PAC10]?
A: EC50 [1]: 110 nM; EC50 [2]: 27 nM

Q: Which “potency in heart rate increase, fold less potent than PACAP27 or maxadilan” value [3] does the source give for “[K15, R16, L27]VIP(1-7)/GRF(8-27) [Peptide R2P1]” here?
A: at least 10 fold

Q: And the “Plasma Insulin (% of Basal)” value [4]?
A: 216 % of Basal

Q: What about the “increases plasma glucose level” value ([5]; IPGTT, 1 nmol/kg) of the same compound?
A: 14%

Q: What about the “Plasma Glucose (% of Basal) i.v.” value [5, 9] of the same compound?
A: 114 % of Basal

Q: For “HAEGTFTSDV SSYLEGQAAK EFIAWLKGR-NH2 [GLP-1]”, which plasma half-life [6] is on record?
A: a few minutes

Q: And the “glucose disposal in the rat” value [5]?
A: enhance glucose disposal

Q: With `CC(C)C[C@H](NC(=O)[C@H](CCC(N)=O)NC(=O)[C@H](CCCCN)NC(=O)[C@H](CCCNC(=N)N)NC(=O)[C@H](CC(C)C)NC(=O)[C@H](CCCCN)NC(=O)[C@@H](NC(=O)[C@H](Cc1ccc(O)cc1)NC(=O)[C@H](CC(N)=O)NC(=O)[C@H](CCC(=O)O)NC(=O)[C@@H](NC(=O)[C@H](Cc1ccccc1)NC(=O)[C@@H](NC(=O)[C@H](C)NC(=O)[C@H](CC(=O)O)NC(=O)[C@H](CO)NC(=O)[C@@H](N)Cc1c[nH]cn1)C(C)C)[C@@H](C)O)[C@@H](C)O)C(=O)N[C@@H](C)C(=O)N[C@@H](C)C(=O)N[C@@H](CCCCN)C(=O)N[C@@H](CCCCN)C(=O)N[C@@H](Cc1ccc(O)cc1)C(=O)N[C@@H](CC(C)C)C(=O)N[C@@H](CC(N)=O)C(=O)N[C@@H](CC(=O)O)C(=O)N[C@@H](CC(C)C)C(=O)N[C@@H](CCCCN)C(=O)N[C@@H](CCCCN)C(=O)NCC(=O)NCC(=O)N[C@H](C(=O)N[C@@H](CO)C(=O)N[C@@H](Cc1c[nH]c2ccccc12)C(=O)N[C@@H](CS)C(=O)N[C@@H](CCC(=O)O)C(=O)N1CCC[C@H]1C(=O)NCC(=O)N[C@@H](Cc1c[nH]c2ccccc12)C(=O)N[C@@H](CS)C(=O)N[C@@H](CCCNC(=N)N)C(=O)O)[C@@H](C)O` [Peptide R3P19] (H-HSDAVFTENYTKLRKQLAAKKYLNDLKKGGTSWCEPGWCR-OH; C-terminus assumed) as the compound, how does the “Plasma Insulin (% of Basal)” value [4] read?
A: 285 % of Basal

Q: Which PACAP-R3 selectivity [7] does the source give for “Ac-HSDAVFTEN(CH3O-Y)TKLRKQNIeAAKKYLNDLKK-NH2 (Ac-HSDAVFTEN[Tyr(Me)]TKLRKQ[Nle]AAKKYLNDLKK-NH2) [Peptide R3P4]” here?
A: greater than 100 fold

Q: Which “Islet Insulin Release (% of Basal)” value [8] does the source give for “HSDAVFTDNYTRLRKQLAAKKYLNDIKK-NH2 [Peptide R3P13]” here?
A: 170 % of Basal

Q: And the “Plasma Insulin (% of Basal)” value [4]?
A: 465 % of Basal

Q: What about the “glucose disposal in the rat” value [5] of the same compound?
A: enhance glucose disposal

Q: What about the “elevation of plasma glucose 30 minutes after IPGTT” value ([5]; 1 nmole/kg s.c., vehicle: 160 mg/dl above basal, Figure 7) of the same compound?
A: significantly reduced

Q: What about the “Plasma Glucose (% of Basal) s.c.” value ([5]; plasma glucose area under the curve after IPGTT (1 g/kg glucose), % of vehicle, 1 nmol/kg peptide s.c.) of the same compound?
A: 77 % of Basal

Q: Which results are given for “Ac-HSDAVFTENYTKLRKQLAAKKYLNDLKKGGT-NH2 [Peptide R3P1]”?
A: Islet Insulin Release (% of Basal) [8]: 250 % of Basal; Plasma Insulin (% of Basal) [4]: 480 % of Basal; Plasma Glucose (% of Basal) i.v. [5, 9]: 73 % of Basal
